Measured values from ChEMBL document CHEMBL1629480, “Molecular docking and QSAR study on steroidal compounds as aromatase inhibitors” (Eur J Med Chem, 2010).

Molecular target: T1, Aromatase (Homo sapiens, UniProt P11511)
T1 sequence (P11511 whole entry): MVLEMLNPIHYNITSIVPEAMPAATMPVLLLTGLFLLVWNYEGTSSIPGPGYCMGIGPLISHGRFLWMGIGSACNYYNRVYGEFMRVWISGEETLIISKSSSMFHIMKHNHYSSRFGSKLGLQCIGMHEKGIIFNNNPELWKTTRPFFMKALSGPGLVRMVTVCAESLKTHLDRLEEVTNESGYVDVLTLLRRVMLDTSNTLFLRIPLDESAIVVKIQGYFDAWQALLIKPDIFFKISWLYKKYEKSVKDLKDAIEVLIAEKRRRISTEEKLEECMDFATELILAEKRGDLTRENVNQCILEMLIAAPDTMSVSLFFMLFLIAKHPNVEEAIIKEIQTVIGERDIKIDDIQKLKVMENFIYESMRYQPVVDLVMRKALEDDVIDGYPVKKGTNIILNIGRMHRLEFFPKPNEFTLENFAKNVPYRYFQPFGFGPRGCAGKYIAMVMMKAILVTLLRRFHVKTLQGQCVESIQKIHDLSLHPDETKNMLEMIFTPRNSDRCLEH
Experiment: Inhibition of human placental aromatase
Settings: for pIC50: human

Structure (SMILES) | IC50 [nM] | pIC50 [uM]
C[C@]12CC[C@H]3[C@@H](C[C@H](O)C4=CCCC[C@@]43CO)[C@@H]1CCC2=O | 1000 | -0.146
C[C@]12CCC(=O)C(O)=C1CC[C@@H]1[C@@H]2CC[C@]2(C)C(=O)CC[C@@H]12 [FORMESTANE] |  | 1.377
C[C@]12CC[C@H]3O[C@H]3[C@@H]1CC[C@@H]1[C@@H]2CC[C@]2(C)[C@@H](O)CC[C@@H]12 | 6500 | -0.813
C[C@]12CC[C@@H](O)C(=O)[C@@H]1CC[C@@H]1[C@@H]2CC[C@]2(C)C(=O)CC[C@@H]12 |  | 0.174
C[C@]12CCC=C[C@@H]1CC[C@@H]1[C@@H]2CC[C@]2(C)[C@@H](O)CC[C@@H]12 | 30000 | -1.477
CC(=O)OC1=C2CC[C@@H]3[C@H](CC[C@]4(C)C(=O)CC[C@@H]34)[C@@]2(C)CCC1 | 660 | 0.18
C[C@]12CC[C@H]3O[C@H]3[C@@H]1CC[C@@H]1[C@@H]2CC[C@]2(C)C(=O)CC[C@@H]12 |  | 0.839
CC(=O)OC1CCC[C@@]2(CO)C1=CC[C@@H]1[C@@H]2CC[C@]2(C)C(=O)CC[C@@H]12 (stereo partly drawn) | 11000 | -1.041
CC(=O)OC1CCC[C@@]2(C)C1=CC[C@@H]1[C@@H]2CC[C@]2(C)C(=O)CC[C@@H]12 (stereo partly drawn) |  | 0
C[C@]12CC[C@H]3[C@@H](CCC4=CCCC[C@@]43CO)[C@@H]1CCC2=O |  | 1.31
C[C@H]1CCC[C@@]2(C)C1=CC[C@@H]1[C@@H]2CC[C@]2(C)C(=O)CC[C@@H]12 | 1800 | -0.255
CCC[C@H]1CCC[C@@]2(C)C1=CC[C@@H]1[C@@H]2CC[C@]2(C)C(=O)CC[C@@H]12 | 5500 | -0.74
CCCC(=O)OC1=C2CC[C@@H]3[C@H](CC[C@]4(C)C(=O)CC[C@@H]34)[C@@]2(C)CCC1 | 1500 | -0.176
C[C@]12CC[C@H]3[C@@H](CC=C4CCCC[C@]43C)[C@@H]1CCC2=O | 660 | 
CC(=O)OC1=C2CC[C@@H]3[C@H](CC[C@]4(C)C(=O)CC[C@@H]34)[C@@]2(CO)CCC1 | 3600 | -0.556
CO[C@H]1CCC[C@@]2(CO)C1=CC[C@@H]1[C@@H]2CC[C@]2(C)C(=O)CC[C@@H]12 |  | -2.176
C[C@]12CCC=C[C@@H]1CC[C@@H]1[C@@H]2CC[C@]2(C)C(=O)CC[C@@H]12 | 225 | 0.648
CC[C@H]1CCC[C@@]2(C)C1=CC[C@@H]1[C@@H]2CC[C@]2(C)C(=O)CC[C@@H]12 | 4500 | -0.653
C[C@]12CCCC(OC(=O)c3ccccc3)=C1CC[C@@H]1[C@@H]2CC[C@]2(C)C(=O)CC[C@@H]12 | 640 | 0.194
CCCCCC(=O)OC1=C2CC[C@@H]3[C@H](CC[C@]4(C)C(=O)CC[C@@H]34)[C@@]2(C)CCC1 | 1800 | -0.255
C[C@]12CCCC(=O)[C@@H]1CC[C@@H]1[C@@H]2CC[C@]2(C)C(=O)CC[C@@H]12 | 2400 | -0.38
C[C@]12CC[C@H]3[C@@H](C[C@@H](O)C4=CCCC[C@@]43CO)[C@@H]1CCC2=O |  | 0.027
C[C@]12CCC(=O)C(O)=C1CC[C@@H]1[C@@H]2CC[C@]2(C)OC(=O)CC[C@@H]12 | 1850 | -0.267
